According to patent EP1285918A1, “C7 Ester substituted taxanes as antitumor agents” (Florida State University Research Foundation, Inc., priority 2001, dated 2003):

How the values were obtained:
[1] = tested on: VM46 Human Colon Carcinoma Xenografts; settings: 6 mice/group
Protocol: Other antitumor compounds were similarly formulated. […] The dosing volume was 0.3 mL per 20 g mouse.
Female NCr-nude mice (6-8 weeks of age, implanted subcutaneously with 1 mm^3 VM46 colon carcinoma fragments in the flank) were sorted into treatment groups of six mice each. […] Dosing was initiated on Day 1. The antitumor compounds were given i.v. at an estimated maximum tolerated dose (MTD) appropriate for each agent on a qd x 1 schedule (single administration of compound). […] Taxotere was given i.v. at a dose of 70 mg/kg on a qd x 1 schedule. The vehicle was given i.v. to control mice in Group 1 in each test on Day 1 (qd x 1) schedule. Treatment groups are detailed in Table 13. The VM46 study ended on Day 64.
(§1) The results are summarized in table 14 and include mean days of survival (MDS), number of toxic deaths, number of survivors, number of complete or partial responses, and number with stable disease. The mean days of survival is the number of days after which a neoplasm reached a size of 1.5 g and the animal was euthanized. A complete response is obtained if the tumor is not palpable at the end of the study. A partial response is obtained if the tumor shrinks to a size smaller than its size on Day 1 of the study. […]

[2] = tested on: A375 Human Melanoma Xenografts; settings: A375
Protocol: Other antitumor compounds were similarly formulated. […] The dosing volume was 0.3 ml per 20 g mouse.
Female NCr-nude mice (implanted subcutaneously with 1 mm^3 A375 melanoma in the flank) were sorted into treatment groups of six mice each, except for the Taxotere group having seven mice each. […] Dosing was initiated on Day 1. The antitumor compounds were given i.v. at an estimated maximum tolerated dose (MTD) appropriate for each agent on a qd x 1 schedule (single administration of compound). […] Taxotere was given i.v. on a qd x 1 schedule at a dose of 70 mg/kg. The vehicle was administered i.v. to control mice in Group 1 on the qd x 1 schedule. Treatment groups are detailed in Table 9. The study was terminated on Day 60.
as §1, with “Table 10” for “table 14”, “tumor” for “neoplasm”, “2.0” for “1.5”

[3] = 70 mg/kg i.v. qd x 1, study end Day 64
[4] = i.v. qd x 1 (mg/kg: Taxol 24, 1351 107.6, 1393 72.6, 1401 107.6, 1418 107.6, 1424 195.1, Taxotere 70), Day 60

CC(=O)O[C@@]12CO[C@@H]1C[C@H](O)[C@@]1(C)C(=O)[C@H](O)C3=C(C)[C@@H](OC(=O)[C@H](O)[C@@H](NC(=O)OC(C)(C)C)c4ccccc4)C[C@@](O)([C@@H](OC(=O)c4ccccc4)[C@H]21)C3(C)C [docetaxel, reference compound]
Complete Response [1, 3]: 0 | Mean Score [1, 3]: 2 ± 0 | Partial Response [1, 3]: 0 | Stable Disease [1, 3]: 0 | Survivors [1, 3]: 0 | Toxic Deaths [1, 3]: 0 | MDS (n) ([1]; 70 mg/kg i.v. qd x 1, study end Day 64, days until tumor reached 1.5 g): 45.3 ± 3.6 (6) days | MDS ([1]; VM46, i.v. qd x 1 (Taxol 24 mg/kg, Taxotere 70 mg/kg), 1.5 g cut-off, Day 64): 45.3 days | MDS (n) ([2]; i.v. qd x 1 (mg/kg: Taxol 24, 1351 107.6, 1393 72.6, 1401 107.6, 1418 107.6, 1424 195.1, Taxotere 70), 2.0 g cut-off, Day 60): 21.5 ± 0.5 (7) days | Complete Response [2, 4]: 0 | Partial Response [2, 4]: 0 | Stable Disease [2, 4]: 0 | Survivors [2, 4]: 0 | Toxic Deaths [2, 4]: 0 | Mean Score ([2]; i.v. qd x 1 (mg/kg: Taxol 24, 1351 107.6, 1393 72.6, 1401 107.6, 1418 107.6, 1424 195.1, Taxotere 70), tumor score 1 to 10, group mean): 2±0 | survival extension compared to Group 1 controls ([2]; i.v. qd x 1 (mg/kg: Taxol 24, 1393 72.6, 1418 107.6, Taxotere 70)): 49%
